# Measured values published in article PMC3725310 (Nature, 2013).
# Molecular target: p7(5a) (Hepatitis C virus (isolate EUH1480), UniProt O39928, A759S/C749A/C774T/C791S/T748G)
# Assay: biochemical
# Format: binding
structure (smiles),measurement,value
CC(N)C12CC3CC(CC(C3)C1)C2 (stereo not shown) [rimantadine],Kd,50 to 100 µM
